Test results published in US11174268B2, “Benzenesulfonamide compouds and their use as therapeutic agents” (Xenon Pharmaceuticals Inc., priority 2016, dated 2021).
Where a name gives a salt, the structure may show the parent alone. Each block holds one molecule with its values, some of them ahead of it.

How the values were obtained:
NaV1.1 = NaV1.1 (Homo sapiens (Human), UniProt P35498); test: Sodium Influx Assay (Flux), NaV1.1; format: cell-based; conditions: Trex HEK293 cells, ANG2 dye, inactivated state;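 further: channels co-expressed with human β1 subunit and held open by modulators, cells exposed to compounds for one hour at room temperature, IC50 from percent inhibition of influx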
NaV1.5 = NaV1.5 (Homo sapiens (Human), UniProt Q14524); test: Sodium Influx Assay (Flux), NaV1.5; conditions: read-out: Flux NaV1.5 IC50; Trex HEK293 cells, ANG2 dye, inactivated state
NaV1.6 [1] = target: T1, NaV1.6 (Homo sapiens (Human), UniProt Q9UQD0); test: Electrophysiological Assay (EP), patch voltage clamp, NaV1.6; format: cell-based; conditions: HEK-293 cells, whole-cell patch clamp;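 further: sodium current recorded at ambient temperature, channels held inactivated then briefly repolarized to −150 mV for 20 ms before a test pulse, control currents in 0.5% DMSO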
NaV1.6 [2] = target: T1, NaV1.6; test: Sodium Influx Assay (Flux), NaV1.6; format: cell-based; conditions: Trex HEK293 cells, ANG2 dye, inactivated state;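 further: Tetracycline-induced cells, compounds applied for one hour at room temperature with modulators holding channels open, IC50 from percent inhibition of sodium influx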

Chain of NaV1.5 (Q14524 other isoform, or with tags, fused parts or gaps): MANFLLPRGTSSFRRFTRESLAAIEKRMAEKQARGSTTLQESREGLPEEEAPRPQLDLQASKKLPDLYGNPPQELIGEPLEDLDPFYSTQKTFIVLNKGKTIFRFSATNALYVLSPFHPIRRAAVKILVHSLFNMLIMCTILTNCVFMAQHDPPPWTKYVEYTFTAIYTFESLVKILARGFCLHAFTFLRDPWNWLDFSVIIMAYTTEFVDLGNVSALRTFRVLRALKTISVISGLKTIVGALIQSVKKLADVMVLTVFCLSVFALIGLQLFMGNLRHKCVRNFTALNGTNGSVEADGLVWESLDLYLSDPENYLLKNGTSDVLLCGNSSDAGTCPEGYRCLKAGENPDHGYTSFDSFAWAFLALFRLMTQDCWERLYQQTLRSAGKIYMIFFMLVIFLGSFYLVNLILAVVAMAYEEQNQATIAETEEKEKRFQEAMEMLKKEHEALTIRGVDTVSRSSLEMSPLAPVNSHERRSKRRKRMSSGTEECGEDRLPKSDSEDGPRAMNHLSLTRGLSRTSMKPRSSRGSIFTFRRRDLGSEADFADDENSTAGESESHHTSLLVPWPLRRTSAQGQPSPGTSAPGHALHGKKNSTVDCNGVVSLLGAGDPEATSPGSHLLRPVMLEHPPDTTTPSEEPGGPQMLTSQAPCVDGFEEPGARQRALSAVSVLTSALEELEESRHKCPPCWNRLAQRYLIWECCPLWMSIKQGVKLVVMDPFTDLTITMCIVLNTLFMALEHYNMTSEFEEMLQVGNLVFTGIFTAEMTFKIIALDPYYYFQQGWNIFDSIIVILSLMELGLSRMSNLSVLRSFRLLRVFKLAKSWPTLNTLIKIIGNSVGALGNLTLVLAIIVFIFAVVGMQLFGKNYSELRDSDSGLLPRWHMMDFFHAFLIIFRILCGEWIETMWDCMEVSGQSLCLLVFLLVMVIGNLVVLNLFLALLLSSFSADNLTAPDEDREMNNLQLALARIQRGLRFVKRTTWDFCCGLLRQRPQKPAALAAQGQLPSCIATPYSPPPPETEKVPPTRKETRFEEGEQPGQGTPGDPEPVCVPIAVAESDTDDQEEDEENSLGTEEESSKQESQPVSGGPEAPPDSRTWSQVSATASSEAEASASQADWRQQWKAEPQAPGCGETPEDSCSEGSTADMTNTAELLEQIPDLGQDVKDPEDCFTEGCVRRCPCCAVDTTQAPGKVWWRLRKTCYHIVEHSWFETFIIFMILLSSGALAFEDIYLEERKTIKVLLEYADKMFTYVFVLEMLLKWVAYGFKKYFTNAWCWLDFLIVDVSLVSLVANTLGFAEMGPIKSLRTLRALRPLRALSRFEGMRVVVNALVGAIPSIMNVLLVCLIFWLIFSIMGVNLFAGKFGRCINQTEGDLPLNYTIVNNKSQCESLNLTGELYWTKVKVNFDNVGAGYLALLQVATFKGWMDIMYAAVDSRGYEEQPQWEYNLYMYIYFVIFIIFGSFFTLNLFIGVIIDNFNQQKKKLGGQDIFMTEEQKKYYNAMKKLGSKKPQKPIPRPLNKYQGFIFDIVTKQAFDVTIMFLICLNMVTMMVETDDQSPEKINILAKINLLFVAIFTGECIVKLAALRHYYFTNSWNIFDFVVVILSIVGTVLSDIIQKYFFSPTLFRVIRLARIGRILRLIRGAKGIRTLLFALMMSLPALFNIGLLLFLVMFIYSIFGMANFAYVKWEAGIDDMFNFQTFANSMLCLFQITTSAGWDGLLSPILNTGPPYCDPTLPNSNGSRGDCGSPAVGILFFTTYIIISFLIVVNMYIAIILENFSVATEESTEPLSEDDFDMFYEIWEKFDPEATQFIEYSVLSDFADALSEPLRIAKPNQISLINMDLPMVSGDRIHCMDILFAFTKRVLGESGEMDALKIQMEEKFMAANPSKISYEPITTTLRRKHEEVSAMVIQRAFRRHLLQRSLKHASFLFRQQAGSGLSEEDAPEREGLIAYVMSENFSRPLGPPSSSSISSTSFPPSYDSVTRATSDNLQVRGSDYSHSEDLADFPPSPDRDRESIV
T1 sequence (Q9UQD0 whole entry): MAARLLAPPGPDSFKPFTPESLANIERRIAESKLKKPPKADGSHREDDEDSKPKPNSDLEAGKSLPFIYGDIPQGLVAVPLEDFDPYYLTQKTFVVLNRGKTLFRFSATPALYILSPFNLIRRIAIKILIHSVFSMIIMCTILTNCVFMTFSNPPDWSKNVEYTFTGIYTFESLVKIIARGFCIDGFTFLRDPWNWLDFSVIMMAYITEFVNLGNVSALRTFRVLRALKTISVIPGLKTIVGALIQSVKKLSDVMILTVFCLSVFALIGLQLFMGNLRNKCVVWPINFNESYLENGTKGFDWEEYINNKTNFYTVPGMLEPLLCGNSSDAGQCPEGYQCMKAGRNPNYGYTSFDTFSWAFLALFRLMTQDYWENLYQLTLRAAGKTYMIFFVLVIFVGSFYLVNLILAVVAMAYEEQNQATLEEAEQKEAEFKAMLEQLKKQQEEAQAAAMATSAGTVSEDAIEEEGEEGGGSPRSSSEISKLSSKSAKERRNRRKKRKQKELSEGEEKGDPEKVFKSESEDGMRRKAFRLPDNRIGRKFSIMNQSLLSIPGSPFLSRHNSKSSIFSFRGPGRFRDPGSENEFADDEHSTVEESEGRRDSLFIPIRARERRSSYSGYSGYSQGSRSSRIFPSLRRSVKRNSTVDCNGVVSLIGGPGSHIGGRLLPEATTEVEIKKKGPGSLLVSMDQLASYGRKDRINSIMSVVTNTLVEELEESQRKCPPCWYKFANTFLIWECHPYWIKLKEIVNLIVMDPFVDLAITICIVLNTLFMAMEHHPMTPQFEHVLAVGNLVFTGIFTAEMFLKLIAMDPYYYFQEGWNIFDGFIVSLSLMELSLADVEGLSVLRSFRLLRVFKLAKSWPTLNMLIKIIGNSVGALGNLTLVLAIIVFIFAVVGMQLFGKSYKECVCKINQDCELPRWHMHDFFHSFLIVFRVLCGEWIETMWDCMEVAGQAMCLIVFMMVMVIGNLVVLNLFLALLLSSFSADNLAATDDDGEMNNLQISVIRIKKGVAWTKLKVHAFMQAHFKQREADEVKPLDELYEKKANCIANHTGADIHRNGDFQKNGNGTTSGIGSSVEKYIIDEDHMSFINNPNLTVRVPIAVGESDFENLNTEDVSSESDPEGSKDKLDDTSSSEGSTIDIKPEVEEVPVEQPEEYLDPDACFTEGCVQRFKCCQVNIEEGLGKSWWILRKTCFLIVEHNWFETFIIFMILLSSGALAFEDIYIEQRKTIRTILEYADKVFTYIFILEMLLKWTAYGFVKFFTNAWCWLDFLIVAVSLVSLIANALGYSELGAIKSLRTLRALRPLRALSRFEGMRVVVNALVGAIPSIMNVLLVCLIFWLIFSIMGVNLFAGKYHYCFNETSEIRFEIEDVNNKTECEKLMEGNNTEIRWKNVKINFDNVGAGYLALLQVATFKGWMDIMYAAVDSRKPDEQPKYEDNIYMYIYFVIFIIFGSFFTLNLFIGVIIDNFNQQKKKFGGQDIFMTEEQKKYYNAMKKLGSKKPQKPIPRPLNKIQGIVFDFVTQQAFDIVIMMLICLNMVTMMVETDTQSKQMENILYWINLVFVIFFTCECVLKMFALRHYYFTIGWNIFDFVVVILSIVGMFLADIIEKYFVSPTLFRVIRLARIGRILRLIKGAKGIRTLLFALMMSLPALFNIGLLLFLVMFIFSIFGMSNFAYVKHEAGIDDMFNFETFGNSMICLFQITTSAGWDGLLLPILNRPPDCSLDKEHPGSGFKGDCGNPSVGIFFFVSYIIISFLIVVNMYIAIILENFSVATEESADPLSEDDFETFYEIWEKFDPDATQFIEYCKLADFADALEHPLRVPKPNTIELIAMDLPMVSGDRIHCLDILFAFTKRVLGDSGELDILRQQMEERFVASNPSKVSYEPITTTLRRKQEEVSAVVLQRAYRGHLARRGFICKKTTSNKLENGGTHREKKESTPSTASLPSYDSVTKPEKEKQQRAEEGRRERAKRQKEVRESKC

IC50 (NaV1.1): 3.75 µM
IC50 (NaV1.6 [2]): 0.014 µM
Molecule: Cc1c(NCc2c(Cl)ccc(F)c2CN2CCC2)cc(F)c(S(=O)(=O)Nc2cscn2)c1F [Example 313, 4-((2-(azetidin-1-ylmethyl)-6-chloro-3-fluorobenzyl)amino)-2,6-difluoro-3-methyl-N-(thiazol-4-yl)benzenesulfonamide 2,2,2-trifluoroacetate]
IC50 (NaV1.5): 14.3 µM

IC50 (NaV1.1): 30 µM
IC50 (NaV1.6 [2]): 0.032 µM
Molecule: Cc1cc(NCc2c(F)cccc2CN2CC(C)(C)C2)c(F)c(F)c1S(=O)(=O)Nc1cscn1 [Example 314, 4-((2-((3,3-dimethylazetidin-1-yl)methyl)-6-fluorobenzyl)amino)-2,3-difluoro-6-methyl-N-(thiazol-4-yl)benzenesulfonamide 2,2,2-trifluoroacetate]
IC50 (NaV1.5): 30 µM

IC50 (NaV1.1): 30 µM
IC50 (NaV1.6 [2]): 0.27 µM
Molecule: Cc1c(NCc2c(F)cccc2CN2CCC2)ccc(S(=O)(=O)Nc2ccon2)c1F [Example 315, 4-((2-(azetidin-1-ylmethyl)-6-fluorobenzyl)amino)-2-fluoro-N-(isoxazol-3-yl)-3-methylbenzenesulfonamide 2,2,2-trifluoroacetate]
IC50 (NaV1.5): 30 µM

IC50 (NaV1.1): 20.4 µM
IC50 (NaV1.6 [2]): 6.03 µM
Molecule: O=S(=O)(Nc1cnsc1)c1c(F)cc(NCc2c(F)cccc2CN2CCC2)cc1F [Example 318, 4-((2-(azetidin-1-ylmethyl)-6-fluorobenzyl)amino)-2,6-difluoro-N-(isothiazol-4-yl)benzenesulfonamide]
IC50 (NaV1.5): 17.3 µM

IC50 (NaV1.1): 18 µM
IC50 (NaV1.6 [2]): 2.31 µM
Molecule: O=S(=O)(Nc1cscn1)c1c(F)cc(NCc2ccccc2CCN2CC(F)(F)C2)cc1F [Example 319, 4-((2-(2-(3,3-difluoroazetidin-1-yl)ethyl)benzyl)amino)-2,6-difluoro-N-(thiazol-4-yl)benzenesulfonamide]
IC50 (NaV1.5): 20 µM

IC50 (NaV1.1): 6.5 µM
IC50 (NaV1.6 [2]): 0.055 µM
Molecule: O=S(=O)(Nc1cscn1)c1c(F)cc(NCc2ccccc2CCN2CC(F)C2)cc1F [Example 320, 4-((2-(2-(3-fluoroazetidin-1-yl)ethyl)benzyl)amino)-2,6-difluoro-N-(thiazol-4-yl)benzenesulfonamide formate]
IC50 (NaV1.5): 17.9 µM

IC50 (NaV1.1): 4.77 µM
IC50 (NaV1.6 [2]): 0.091 µM
Molecule: O=S(=O)(Nc1cscn1)c1cc(Cl)c(N[C@@H]2C[C@H](N3CCC3)c3ccccc32)cc1F [Example 321, 4-(((1R,3S)-3-(azetidin-1-yl)-2,3-dihydro-1H-inden-1-yl)amino)-5-chloro-2-fluoro-N-(thiazol-4-yl)benzenesulfonamide formate]
IC50 (NaV1.5): 28.1 µM

IC50 (NaV1.1): 9.38 µM
IC50 (NaV1.6 [2]): 0.518 µM
Molecule: C=Cc1cc(S(=O)(=O)Nc2cscn2)c(F)cc1NCc1ccccc1CN1CCC1 [Example 323, 4-((2-(azetidin-1-ylmethyl)benzyl)amino)-2-fluoro-N-(thiazol-4-yl)-5-vinylbenzenesulfonamide formate]
IC50 (NaV1.5): 15 µM

IC50 (NaV1.1): 18.9 µM
IC50 (NaV1.6 [2]): 0.647 µM
Molecule: O=S(=O)(Nc1cccc(F)n1)c1c(F)cc(NCc2ccccc2CN2CCC2)cc1F [Example 324, 4-((2-(azetidin-1-ylmethyl)benzyl)amino)-2,6-difluoro-N-(6-fluoropyridin-2-yl)benzenesulfonamide]
IC50 (NaV1.5): 30 µM

IC50 (NaV1.1): 8.12 µM
IC50 (NaV1.6 [2]): 0.214 µM
Molecule: Cc1cc(S(=O)(=O)Nc2cccc(F)n2)c(F)cc1NCc1ccccc1CN1CCC1 [Example 329, 4-((2-(azetidin-1-ylmethyl)benzyl)amino)-2-fluoro-N-(6-fluoropyridin-2-yl)-5-methylbenzenesulfonamide]
IC50 (NaV1.5): 28.4 µM

IC50 (NaV1.1): 0.831 µM
IC50 (NaV1.6 [2]): 0.275 µM
Molecule: O=S(=O)(Nc1nccs1)c1cc(Cl)c(N[C@H](c2ccccc2F)C(F)(F)F)cc1F [Example 332, (R)-5-chloro-2-fluoro-N-(thiazol-2-yl)-4-((2,2,2-trifluoro-1-(2-fluorophenyl)ethyl)amino)benzenesulfonamide]
IC50 (NaV1.5): 7.24 µM

IC50 (NaV1.1): 14.3 µM
IC50 (NaV1.6 [2]): 0.266 µM
Molecule: CC1(F)CN(Cc2cccc(F)c2CNc2cc(F)c(S(=O)(=O)Nc3ccon3)c(F)c2)C1 [Example 337, 2,6-difluoro-4-((2-fluoro-6-((3-fluoro-3-methylazetidin-1-yl)methyl)benzyl)amino)-N-(isoxazol-3-yl)benzenesulfonamide formate]
IC50 (NaV1.5): 30 µM

IC50 (NaV1.1): 5.71 µM
IC50 (NaV1.6 [2]): 1.62 µM
Molecule: CC[C@H](Oc1cc(F)c(S(=O)(=O)Nc2cscn2)cc1Cl)c1ccccc1F [Example 338, (S)-5-chloro-2-fluoro-4-(1-(2-fluorophenyl)propoxy)-N-(thiazol-4-yl)benzenesulfonamide]
IC50 (NaV1.5): 2.65 µM

The remaining lines, values behind:

Molecule: CC[C@H](Nc1ccc(S(=O)(=O)Nc2ncns2)cc1Cl)c1ccccc1 [Example 32, (S)-3-chloro-4-((1-phenylpropyl)amino)-N-(1,2,4-thiadiazol-5-yl)benzenesulfonamide]
IC50 (NaV1.1): 1.06 µM
IC50 (NaV1.5): 12.8 µM
IC50 (NaV1.6 [1]): 0.023 µM
IC50 (NaV1.6 [2]): 0.092 µM

Molecule: CCC(Nc1cc(F)c(S(=O)(=O)Nc2ncns2)cc1F)c1ccccc1 (centres unmarked) [Example 85, 2,5-difluoro-4-((1-phenylpropyl)amino)-N-(1,2,4-thiadiazol-5-yl)benzenesulfonamide]
IC50 (NaV1.1): 0.516 µM
IC50 (NaV1.5): 30 µM
IC50 (NaV1.6 [1]): 0.078 µM
IC50 (NaV1.6 [2]): 0.107 µM

Molecule: O=S(=O)(Nc1ccc(F)cn1)c1c(F)cc(NCc2c(F)cccc2CN2CCC2)cc1F [Example 296, 4-((2-(azetidin-1-ylmethyl)-6-fluorobenzyl)amino)-2,6-difluoro-N-(5-fluoropyridin-2-yl)benzenesulfonamide formate]
IC50 (NaV1.1): 16.9 µM
IC50 (NaV1.5): 30 µM
IC50 (NaV1.6 [2]): 1.31 µM

Molecule: O=S(=O)(Nc1cscn1)c1cc(Cl)c(NCc2c(F)ccc3cc[nH]c23)cc1F [Example 298, 5-chloro-2-fluoro-4-(((6-fluoro-1H-indol-7-yl)methyl)amino)-N-(thiazol-4-yl)benzenesulfonamide]
IC50 (NaV1.1): 7.19 µM
IC50 (NaV1.5): 11.3 µM
IC50 (NaV1.6 [2]): 0.785 µM

Molecule: C[C@@H](O)c1cccc(F)c1CNc1cc(F)c(S(=O)(=O)Nc2cscn2)c(F)c1 [Example 299, (R)-2,6-difluoro-4-((2-fluoro-6-(1-hydroxyethyl)benzyl)amino)-N-(thiazol-4-yl)benzenesulfonamide]
IC50 (NaV1.1): 0.684 µM
IC50 (NaV1.5): 21.6 µM
IC50 (NaV1.6 [2]): 3.61 µM

Molecule: O=S(=O)(Nc1ccon1)c1cc(Cl)c(NCc2c(F)cccc2CN2CCC2)cc1F [Example 301, 4-((2-(azetidin-1-ylmethyl)-6-fluorobenzyl)amino)-5-chloro-2-fluoro-N-(isoxazol-3-yl)benzenesulfonamide formate]
IC50 (NaV1.1): 30 µM
IC50 (NaV1.5): 30 µM
IC50 (NaV1.6 [2]): 0.493 µM

Molecule: O=S(=O)(Nc1cscn1)c1c(F)cc(NCc2c(F)cccc2CN2CCC2)cc1F [Example 302, 4-((2-(azetidin-1-ylmethyl)-6-fluorobenzyl)amino)-2,6-difluoro-N-(thiazol-4-yl)benzenesulfonamide 2,2,2-trifluoroacetate]
IC50 (NaV1.1): 9.67 µM
IC50 (NaV1.5): 23.9 µM
IC50 (NaV1.6 [2]): 0.049 µM

Molecule: O=S(=O)(Nc1cscn1)c1c(F)cc(NCc2c(F)cccc2CN2CCC2)c(Cl)c1F [Example 303, 4-((2-(azetidin-1-ylmethyl)-6-fluorobenzyl)amino)-3-chloro-2,6-difluoro-N-(thiazol-4-yl)benzenesulfonamide 2,2,2-trifluoroacetate]
IC50 (NaV1.1): 5.73 µM
IC50 (NaV1.5): 24.5 µM
IC50 (NaV1.6 [2]): 0.007 µM

Molecule: Cc1c(NCc2ccccc2CN2CCC2(C)C)cc(F)c(S(=O)(=O)Nc2cscn2)c1F [Example 305, 4-((2-((2,2-dimethylazetidin-1-yl)methyl)benzyl)amino)-2,6-difluoro-3-methyl-N-(thiazol-4-yl)benzenesulfonamide 2,2,2-trifluoroacetate]
IC50 (NaV1.1): 14.2 µM
IC50 (NaV1.5): 30 µM
IC50 (NaV1.6 [2]): 0.057 µM

Molecule: Cc1c(NCc2c(F)cccc2CN2CCC2(C)C)ccc(S(=O)(=O)Nc2cscn2)c1F [Example 306, 4-((2-((2,2-dimethylazetidin-1-yl)methyl)-6-fluorobenzyl)amino)-2-fluoro-3-methyl-N-(thiazol-4-yl)benzenesulfonamide]
IC50 (NaV1.1): 18.1 µM
IC50 (NaV1.5): 8.1 µM
IC50 (NaV1.6 [2]): 0.241 µM

Molecule: O=S(=O)(Nc1cscn1)c1cc(F)c(NCc2c(F)cccc2CN2CCC2)cc1F [Example 308, 4-((2-(azetidin-1-ylmethyl)-6-fluorobenzyl)amino)-2,5-difluoro-N-(thiazol-4-yl)benzenesulfonamide]
IC50 (NaV1.1): 26 µM
IC50 (NaV1.5): 26.4 µM
IC50 (NaV1.6 [2]): 0.605 µM

Molecule: O=S(=O)(Nc1cscn1)c1c(F)cc(NCc2c(Cl)ccc(F)c2CN2CCC2)cc1F [Example 309, 4-((2-(azetidin-1-ylmethyl)-6-chloro-3-fluorobenzyl)amino)-2,6-difluoro-N-(thiazol-4-yl)benzenesulfonamide 2,2,2-trifluoroacetate]
IC50 (NaV1.1): 6.34 µM
IC50 (NaV1.5): 27.6 µM
IC50 (NaV1.6 [2]): 0.085 µM

Molecule: O=S(=O)(Nc1ccncn1)c1c(F)cc(NCc2ccccc2CN2CCC2)cc1F [Example 311, 4-((2-(azetidin-1-ylmethyl)benzyl)amino)-2,6-difluoro-N-(pyrimidin-4-yl)benzenesulfonamide formate]
IC50 (NaV1.1): 26.4 µM
IC50 (NaV1.5): 30 µM
IC50 (NaV1.6 [2]): 0.219 µM

Molecule: Cc1cc(NCc2ccccc2CN2CCC2)c(F)c(F)c1S(=O)(=O)Nc1cscn1 [Example 312, 4-((2-(azetidin-1-ylmethyl)benzyl)amino)-2,3-difluoro-6-methyl-N-(thiazol-4-yl)benzenesulfonamide 2,2,2-trifluoroacetate]
IC50 (NaV1.1): 7.26 µM
IC50 (NaV1.5): 9.59 µM
IC50 (NaV1.6 [2]): 0.135 µM

Molecule: (R)-5-chloro-2-fluoro-4-((1-(isoquinolin-8-yl)ethyl)amino)-N-(thiazol-2-yl)benzenesulfonamide [Example 13]
IC50 (NaV1.1): 30 µM
IC50 (NaV1.5): 30 µM
IC50 (NaV1.6 [2]): 5.89 µM

Molecule: (S)-5-chloro-2-fluoro-4-((1-(isoquinolin-8-yl)ethyl)amino)-N-(thiazol-2-yl)benzenesulfonamide [Example 12]
IC50 (NaV1.1): 30 µM
IC50 (NaV1.5): 30 µM
IC50 (NaV1.6 [2]): 1.98 µM
